pEC50: −log10 of the molar value.
Experiments:
hNLRP3 = molecular target: T1, hNLRP3 (Homo sapiens, UniProt Q96P20); experiment: Measurement of IL-1β production in PMA-differentiated THP-1 cells (hNLRP3 agonist; ELISA, alternative and hTRF procedures); type: cell-based
T1 construct: THP-1 cells were purchased from the American Type Culture Collection; host or cells: THP-1 cells, PMA-differentiated
Description: Measurement of IL-1β production in PMA-differentiated THP-1 cells THP-1 cells were purchased from the American Type Culture Collection and sub-cultured according to instructions from the supplier. Prior to experiments, cells were cultured in RPMI 1640 containing 10% heat inactivated FBS, penicillin (100 units/ml) and streptomycin (100 μg/ml), and maintained in log phase prior to experimental setup. Prior to the experiment THP-1 were treated with PMA (Phorbol 12-myristate 13-acetate) ([…]) for 24 hours. The day of the experiment the media was removed and attaching cells were treated with trypsin for 2 minutes, cells were then collected, washed with PBS (phosphate buffer saline), spin down, resuspended in 2% heat inactivated FBS with RPMI at a concentration of 1×10^6 cells/ml, and 100 μl was plated in a 96 well plate. Compounds were dissolved in dimethyl sulfoxide (DMSO) and added to the culture medium to achieve desired concentration (e.g. 100, 30, 10, 3, 1, 0.3 or 0.1 μM). Cells were incubated with compounds for 4 hours. Cell free supernatant was collected and the production of […] was evaluated by ELISA. A vehicle only control was run concurrently with each experiment. Final DMSO concentration was 1%.
Measurement of IL-1β Production in PMA-Differentiated THP-1 Cells (Alternative Procedure)
THP-1 cells were purchased from the American Type Culture Collection and sub-cultured according to instructions from the supplier. Prior to experiments, cells were cultured in RPMI 1640 containing 10% heat inactivated FBS, penicillin (100 units/ml), streptomycin (100 μg/ml), HEPES (10 mM) and sodium pyruvate (1 mM) and maintained in log phase prior to experimental setup. Prior to the experiment, THP-1 cells were treated with PMA (Phorbol 12-myristate 13-acetate) (20 μg/ml) overnight. The day of the experiment, the media was removed and attached cells were treated with trypsin for 2 minutes, cells were then collected, washed with PBS (phosphate buffer saline), pelleted by centrifugation and resuspended in 2% heat inactivated FBS with RPMI at a concentration of 50,000 cells/well in a 384 well plate. Cell free supernatant was collected and the production of IL-1β was evaluated by ELISA. Compounds were dissolved in dimethyl sulfoxide (DMSO) and added to the culture medium to achieve desired concentration (e.g. 100, 30, 10, 3, 1, 0.3 or 0.1 μM). Cells were incubated with compounds for 2 hours. A vehicle only control was run concurrently with each experiment. Final DMSO concentration was 1%.
Measurement of IL-1β Production—hTRF Protocol (Second Alternative Procedure)
Serial dilutions of compounds in DMSO were added to low volume 384 well plates at 100 nl/well using an ECHO 550 acoustic dispenser (Labcyte) to achieve final starting concentration of 10 μM in assay.
THP-1 cells in RPMI (Gibco, 11875) media with 10% FBS at a density of 1×10^6 cell/ml in a T175 flask were treated with a final concentration of phorbol 12-myristate 13-acetate (PMA) (Sigma, P1585) of 50 ng/ml overnight at 37° C. at 5% CO2 for differentiation. Cells were harvested the next day after rinsing well with dPBS using 0.5% trypsin. A cell solution was prepared of 1×10^6 cells/ml for 50,000 cells in 50 μl/well in RPMI media with 2% FBS. Cells were plated using a multichannel pipette onto the compound dilutions in Greiner, 384 well, black clear bottom tissue culture treated plates (781090). The plates were incubated in 37° C. incubator at 5% CO2 for 2 hours.
After the 2 hour incubation, the cell plates were spun in the centrifuge for 5 minutes at 1200 rpm. Using the Felix (CyBio), 8 μl of the supernatant was transferred to 384 well, low volume, white proxy plates. (Perkin Elmer, 6008230). A human IL1beta hTRF kit was used to analyze the supernatant (CISBIO, 62HIL1BPEG). The kit instructions were followed for preparing the IL1Beta standard curve and then the antibodies from the kit were diluted 1:40 rather than 1:20 as kit instructed.

TLR7 = molecular target: T2, TLR7 (Homo sapiens, UniProt Q9NYK1); experiment: In vitro human TLR7 binding reporter assay (HEK-Blue, NF-kB/AP1-inducible SEAP); type: cell-based; details: activity range symbols
T2 construct: host or cells: HEK-Blue cells (human HEK) co-expressing TLR7 and an NF-kB/AP1-inducible SEAP reporter
T2 sequence (Q9NYK1 27-1049): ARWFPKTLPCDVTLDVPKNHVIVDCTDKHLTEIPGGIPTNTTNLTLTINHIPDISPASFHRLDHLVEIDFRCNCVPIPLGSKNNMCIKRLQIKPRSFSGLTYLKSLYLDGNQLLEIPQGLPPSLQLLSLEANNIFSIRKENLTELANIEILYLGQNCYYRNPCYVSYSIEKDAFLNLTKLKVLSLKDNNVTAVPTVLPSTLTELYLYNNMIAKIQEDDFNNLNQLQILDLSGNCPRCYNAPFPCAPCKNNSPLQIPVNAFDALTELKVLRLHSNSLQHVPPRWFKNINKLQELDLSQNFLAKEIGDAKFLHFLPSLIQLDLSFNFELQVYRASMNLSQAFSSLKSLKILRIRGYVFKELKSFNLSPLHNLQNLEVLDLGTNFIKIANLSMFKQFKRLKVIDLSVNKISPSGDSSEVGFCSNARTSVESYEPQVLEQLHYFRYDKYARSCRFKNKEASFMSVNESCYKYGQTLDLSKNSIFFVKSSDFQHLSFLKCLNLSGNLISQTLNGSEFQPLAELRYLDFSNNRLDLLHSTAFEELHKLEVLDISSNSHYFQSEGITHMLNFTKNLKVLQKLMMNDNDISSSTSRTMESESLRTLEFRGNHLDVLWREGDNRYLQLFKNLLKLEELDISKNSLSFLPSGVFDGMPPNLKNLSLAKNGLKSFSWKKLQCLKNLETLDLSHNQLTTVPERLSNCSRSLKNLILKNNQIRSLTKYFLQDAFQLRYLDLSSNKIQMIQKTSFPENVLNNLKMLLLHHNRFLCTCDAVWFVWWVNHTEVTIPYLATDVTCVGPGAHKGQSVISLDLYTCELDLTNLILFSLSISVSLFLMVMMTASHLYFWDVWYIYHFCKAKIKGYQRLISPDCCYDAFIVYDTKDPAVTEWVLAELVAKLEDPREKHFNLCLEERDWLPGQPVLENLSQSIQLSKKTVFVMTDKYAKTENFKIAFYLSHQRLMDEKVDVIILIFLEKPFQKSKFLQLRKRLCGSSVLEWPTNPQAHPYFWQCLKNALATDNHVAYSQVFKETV
Description: In Vitro Human TLR7 and TLR8 Binding Reporter Assays
Logarithmically-growing human HEK-Blue cells co-expressing a TLR7 or TLR8 gene and a NF-kB/AP1-inducible SEAP (secreted embryonic alkaline phosphatase; Invivogen, San Diego, CA) reporter gene are added to individual wells of a 384-well plate (15,000 cells per 20 μL per well) and maintained for 24 h at 37° C., 5% CO2. Test compounds or DMSO are distributed to separate wells the next day using acoustic liquid handling technology (100 nL per well) and cells are subsequently incubated for 18 h at 37° C., 5% CO2. Cellular SEAP production is measured using an Envision plate reader instrument thirty minutes after adding freshly-made Quanti-Blue reagent (prepared by following manufacturer instructions; Invivogen, San Diego, CA) to the HEK-Blue TLR Nf-kB-SEAP cell reactions. All EC50 values (half-maximal effective concentration) are determined using proprietary data analysis software.

T1 sequence (Q96P20 whole entry): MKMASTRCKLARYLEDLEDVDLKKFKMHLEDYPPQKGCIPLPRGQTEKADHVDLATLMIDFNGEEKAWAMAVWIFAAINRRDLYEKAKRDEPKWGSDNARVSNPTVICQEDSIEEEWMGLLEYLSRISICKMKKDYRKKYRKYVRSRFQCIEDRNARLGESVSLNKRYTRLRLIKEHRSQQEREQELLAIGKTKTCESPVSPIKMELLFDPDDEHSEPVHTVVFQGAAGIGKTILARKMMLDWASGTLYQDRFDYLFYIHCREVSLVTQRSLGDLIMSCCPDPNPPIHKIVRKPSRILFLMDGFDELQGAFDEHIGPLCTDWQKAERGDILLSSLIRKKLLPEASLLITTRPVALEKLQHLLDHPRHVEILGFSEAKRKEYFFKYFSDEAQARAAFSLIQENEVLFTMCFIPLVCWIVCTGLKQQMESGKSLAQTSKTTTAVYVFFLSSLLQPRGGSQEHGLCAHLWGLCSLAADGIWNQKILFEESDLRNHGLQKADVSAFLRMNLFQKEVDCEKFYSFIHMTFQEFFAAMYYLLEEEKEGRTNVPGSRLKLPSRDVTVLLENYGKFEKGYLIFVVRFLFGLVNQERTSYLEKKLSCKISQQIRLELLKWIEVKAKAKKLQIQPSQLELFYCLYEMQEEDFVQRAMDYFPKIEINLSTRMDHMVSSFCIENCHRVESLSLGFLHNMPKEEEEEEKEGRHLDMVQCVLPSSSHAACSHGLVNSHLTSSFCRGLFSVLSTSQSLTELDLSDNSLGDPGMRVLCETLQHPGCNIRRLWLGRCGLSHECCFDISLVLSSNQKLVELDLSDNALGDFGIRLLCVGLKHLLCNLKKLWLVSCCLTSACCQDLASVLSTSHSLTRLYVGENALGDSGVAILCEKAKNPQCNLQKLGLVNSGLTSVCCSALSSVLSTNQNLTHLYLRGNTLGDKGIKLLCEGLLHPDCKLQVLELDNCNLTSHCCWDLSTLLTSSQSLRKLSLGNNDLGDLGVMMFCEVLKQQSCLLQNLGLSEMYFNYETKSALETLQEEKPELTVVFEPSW

Row | Structure (SMILES) | pEC50 (hNLRP3) | pEC50 (TLR7)
1 | Nc1nc2cc(-c3cc[nH]n3)ccc2c2[nH]c(CNC(=O)C3CC3)nc12 [Compound 105] | 6.16 | 
2 | CC(C)C(=O)NCc1nc2c(N)nc3cc(-c4cc[nH]n4)ccc3c2[nH]1 [Compound 107] | 6.19 | 
3 | CC(=O)NCc1nc2c(N)nc3cc(-c4cc[nH]n4)ccc3c2[nH]1 [Compound 113, N-((4-Amino-7-(1H-pyrazol-3-yl)-1H-imidazo[4,5-c]quinolin-2-yl)methyl)acetamide] | 6.25 | 
4 | CS(=O)(=O)NCc1nc2c(N)nc3cc(-c4cc[nH]n4)ccc3c2[nH]1 [Compound 116] | 5.94 | 
5 | CCN(Cc1nc2c(N)nc3cc(-c4cc[nH]n4)ccc3c2[nH]1)C(=O)c1ccccc1 [Compound 126] | 5.68 | 
6 | CCN(Cc1nc2c(N)nc3cc(-c4cc[nH]n4)ccc3c2[nH]1)C(=O)CO [Compound 133] | 5.46 | 
7 | CCN(Cc1nc2c(N)nc3cc(-n4nccn4)ccc3c2[nH]1)C(=O)OC(C)(C)C [Compound 135] | 5.34 | 
8 | Nc1nc2cc(-c3cc[nH]n3)ccc2c2[nH]c(CN3CC(c4ccccc4)CC3=O)nc12 (stereo not drawn) [Compound 137] | 5.27 | 
9 | CCN(C(C)=O)C(C)c1nc2c(N)nc3cc(Br)ccc3c2[nH]1 (stereo not drawn) [Compound 182, N-[1-(4-amino-7-bromo-1H-imidazo[4,5-c]quinolin-2-yl)ethyl]-N-ethylacetamide] | 5.23 | < 4.00
10 | COc1ccc(-c2ccc3c(c2)nc(N)c2nc(CN4CCCC4=O)[nH]c23)cc1 [Compound 292, 1-[[4-amino-7-(4-methoxyphenyl)-1H-imidazo[4,5-c]quinolin-2-yl]methyl]pyrrolidin-2-one] | 5.35 | 
11 | COc1ccc(-c2ccc3c(c2)nc(N)c2nc(CN4CCCC4=O)[nH]c23)cn1 [Compound 304, 1-[[4-amino-7-(6-methoxypyridin-3-yl)-1H-imidazo[4,5-c]quinolin-2-yl]methyl]pyrrolidin-2-one] | 4.44 | 
12 | Nc1nc2cc(-c3cccnc3F)ccc2c2[nH]c(CN3CCCC3=O)nc12 [Compound 307, 1-[[4-amino-7-(2-fluoropyridin-3-yl)-1H-imidazo[4,5-c]quinolin-2-yl]methyl]pyrrolidin-2-one] | 4.91 | 
13 | Nc1nc2cc(-c3ccsc3)ccc2c2[nH]c(CN3CCCC3=O)nc12 [Compound 308, 1-[(4-amino-7-thiophen-3-yl-1H-imidazo[4,5-c]quinolin-2-yl)methyl]pyrrolidin-2-one] | 5.97 | 
14 | Nc1nc2ccccc2c2c1nc(CN1CCCC1=O)n2CCCC(=O)N1CCSCC1 [Compound 345] | 4.19 | 
15 | CN1CCN(Cc2nc3c(N)nc4cc(-c5cc[nH]n5)ccc4c3[nH]2)C(=O)C1 [Compound 350] | 5.00 | 
16 | Nc1nc2cc(-c3cc[nH]n3)ccc2c2[nH]c(CN3CCOCC3=O)nc12 [Compound 351] | 5.66 | 
17 | Nc1nc2cc(-c3cc[nH]n3)ccc2c2[nH]c(CN3CCCCC3=O)nc12 [Compound 352] | 5.65 | 
18 | CC(C)NCc1nc2c(N)nc3cc(-c4cc[nH]n4)ccc3c2[nH]1 [Compound 421] | 6.62 | 
19 | CCN(Cc1nc2c(N)nc3cc(-c4cccs4)ccc3c2[nH]1)C(=O)OC(C)(C)C [Compound 424] | 6.10 | < 4.00
20 | CCN(Cc1nc2c(N)nc3cc(-c4cccs4)ccc3c2[nH]1)C(C)=O [Compound 425] | 6.36 | < 4.00
21 | Nc1nc2cc(-c3cccnc3)ccc2c2[nH]c(CN3CCCCC3=O)nc12 [Compound 426] | 5.37 | < 4.00
22 | Nc1nc2cc(Br)ccc2c2[nH]c(CN3CCCCC3=O)nc12 [Compound 428] | 5.29 | < 4.00
23 | Nc1nc2cc(-n3cccn3)ccc2c2[nH]c(CN3CCOC3=O)nc12 [Compound 429] | 5.24 | < 4.00
24 | CN1CCN(Cc2nc3c(N)nc4cc(-c5cc[nH]n5)ccc4c3[nH]2)C(=O)C1 [Compound 432] | ~5.00 | 
25 | CC(C)(C)OC(=O)N1CCN(Cc2nc3c(N)nc4cc(-c5cccnc5)ccc4c3[nH]2)C(=O)C1 [Compound 433] | 4.94 | 
26 | CCCn1c(CN(CC)C(C)=O)nc2c(N)nc3cc(Br)ccc3c21 [Compound 435] | 4.71 | < 4.00

Source: patent US12351580B2, “NLRP3 modulators” (Innate Tumor Immunity, Inc., priority 2017, dated 2025)
